How the values were obtained:
[1] = Cytotoxicity assay against human MRC5 cells; type: cell-based; settings: human, MRC5 cells
[2] = molecular target: T1, TbGalE (UDP-galactose 4′-epimerase from Trypanosoma brucei) (Trypanosoma brucei, UniProt Q8T8E9); assay: TbGalE inhibition assay; type: biochemical; settings: for Hill Slope: TbGalE potency curve
T1 sequence (Q8T8E9 1-395): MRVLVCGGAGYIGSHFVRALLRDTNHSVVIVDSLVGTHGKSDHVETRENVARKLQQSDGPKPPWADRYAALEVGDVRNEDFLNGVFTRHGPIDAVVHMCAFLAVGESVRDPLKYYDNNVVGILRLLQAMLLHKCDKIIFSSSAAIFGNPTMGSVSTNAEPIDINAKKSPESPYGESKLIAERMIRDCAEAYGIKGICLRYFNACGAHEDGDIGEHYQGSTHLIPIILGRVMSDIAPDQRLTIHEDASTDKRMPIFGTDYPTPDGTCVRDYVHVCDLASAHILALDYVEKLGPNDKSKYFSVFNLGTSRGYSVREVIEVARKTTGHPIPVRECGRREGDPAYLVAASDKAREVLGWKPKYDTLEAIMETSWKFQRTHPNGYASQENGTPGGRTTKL

cultured T. brucei = type: cell-based, Trypanosoma brucei; settings: whole-cell T. brucei, three days, Alamar Blue
human MRC5 cells = assay: Cytotoxicity assay against human MRC5 cells; type: cell-based; settings: human MRC5 cells, three days, Alamar Blue
Trypanosoma cruzi = settings: cited from earlier work

| Structure (SMILES) | EC50 at 3 days [1] | Hill Slope [2] | further results |
| --- | --- | --- | --- |
| O=C(O)c1ccccc1-c1ccccc1C(=O)Nc1ccc2c(c1)nc(O)c1ccccc12 [compound 1] | > 50 µM | 1.8 ± 0.6 | – |
| O=C(O)c1cc(Cl)ccc1-c1ccc(Cl)cc1C(=O)NC1=CC2=C(CC1)c1c(Cl)cc(Cl)cc1C2 [compound 14] | – | – | Tb EC50 (cultured T. brucei): no activity; MRC5 EC50 (human MRC5 cells): demonstrated inhibition of MRC5 growth |
| O=C(O)c1cc(Cl)ccc1-c1ccc(Cl)cc1C(=O)Nc1ccc2c(c1)Cc1ccccc1-2 [compound 13] | > 50 µM | – | – |
| COC1C(OC(=O)c2ccc(C)[nH]2)C(O)C(Oc2ccc3c(O)c(NC(=O)c4ccc(O)c(CC=C(C)C)c4)c(=O)oc3c2Cl)OC1(C)C (stereo not drawn) [compound 3, clorobiocin] | > 50 µM | 2.1 ± 0.5 | inhibition of growth of Trypanosoma cruzi (Trypanosoma cruzi): inhibit the growth |
| O=C(O)c1ccccc1-c1ccccc1C(=O)Nc1ccc2c(c1)C(=O)c1ccccc1-2 [compound 5] | > 50 µM | – | – |
| CO[C@@H]1[C@@H](OC(N)=O)[C@@H](O)[C@H](Oc2ccc3c(O)c(NC(=O)c4ccc(O)c(CC=C(C)C)c4)c(=O)oc3c2C)OC1(C)C [novobiocin, reference compound] | – | – | inhibition of growth of Trypanosoma cruzi (Trypanosoma cruzi): inhibits the growth; inhibition at 10 µM ([2]; read-out: TbGalE inhibition at 10 μM): ≤ 50% |
| O=C(O)c1ccccc1-c1ccccc1C(=O)Nc1ccc2c(c1)Cc1cc(F)ccc1-2 [compound 10] | > 50 µM | – | – |
| CCn1c2ccccc2c2cc(NC(=O)c3ccccc3-c3ccccc3C(=O)O)ccc21 [compound 2] | > 50 µM | 1.2 ± 0.3 | – |
| O=C(O)c1ccccc1-c1ccccc1C(=O)Nc1cc2c3ccccc3ccc2c2ccccc12 [compound 12] | > 50 µM | – | – |

Reference: article PMC2895357 (Journal of Medicinal Chemistry, 2010)
